# In patent publication US10426772B2, “Use of ergot alkaloids as an anthelmintic agent” (priority 2016, dated 2019):
# Columns and labels:
# adult S. mansoni = test: Movement assay of cultured adult S. mansoni (Example 2); type: cell-based; conditions: Schistosoma mansoni; for IC50: read-out: IC50, inhibition of serotonin evoked schistosome movement
# Excerpt: (§1) Female Swiss Webster mice infected with S. mansoni cerceria (NMRI strain) were sacrificed 49 days post infection by CO2 euthanasia. Adult schistosomes were recovered by perfusion with a solution of 0.85% sodium chloride+0.75% sodium citrate and dissection of the mesenteric vasculature. Harvested schistosomes were washed in RPMI 1640 Medium with GlutaMAX+5% heat inactivated FBS (Gibco) and Penicillin-Streptomycin (final concentration 100 units/mL, ThermoFisher cat #15140122).
# For movement assays, worms were cultured 37° C./5% CO2 in vented 100×25 mm petri dishes (ThermoFisher cat #4031) containing 50 mL of media and used between 1-3 days after harvesting. Prior to assessing worm movement, individuals were transferred to a six well dish (4-5 individuals per well) containing 3 mL drug solution in RPMI 1640 supplemented with HEPES (25 mM) and MS (5%). Videos were recorded using a Zeiss Discovery v20 stereomicroscope and a QiCAM 12-bit cooled color CCD camera controlled by metamorph imaging software (version 7.8.1.0). 1 minute recordings were acquired at 4 frames per second, saved as a .TIFF stack, and movement was analyzed using ImageJ software as described in (PMID: 27187180, PMID: 27397763).
# Hs.5HT7R = biological target: T1, Hs.5HT7R (Homo sapiens, UniProt P34969); test: GloSensor cAMP assay, HEK293 cells transiently transfected with Hs.5HT7R; type: cell-based; conditions: inhibition of cAMP generation
# T1 construct: host or cells: HEK293 (ATCC CRL-1573.3), transient, pCS2(−), co-transfected with GloSensor
# T1 sequence (P34969 1-445 isoform P34969-2): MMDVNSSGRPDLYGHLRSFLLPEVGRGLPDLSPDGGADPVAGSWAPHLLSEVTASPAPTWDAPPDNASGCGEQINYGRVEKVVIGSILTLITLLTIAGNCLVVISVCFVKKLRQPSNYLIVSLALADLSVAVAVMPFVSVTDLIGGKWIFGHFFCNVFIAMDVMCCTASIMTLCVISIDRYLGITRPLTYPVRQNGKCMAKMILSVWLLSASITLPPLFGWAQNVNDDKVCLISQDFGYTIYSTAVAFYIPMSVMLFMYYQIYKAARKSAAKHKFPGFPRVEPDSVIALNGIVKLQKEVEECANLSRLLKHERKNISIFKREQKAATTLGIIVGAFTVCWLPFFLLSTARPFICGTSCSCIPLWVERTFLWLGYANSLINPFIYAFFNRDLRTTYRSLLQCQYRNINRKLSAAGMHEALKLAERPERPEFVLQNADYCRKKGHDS
# Description: (§2) HEK293 cells (ATCC CRL-1573.3) were cultured in DMEM supplemented with 10% fetal bovine serum (FBS), penicillin (100 units/mL), streptomycin (100 μg/mL), and L-glutamine (290 μg/mL). Cells were transiently transfected (ViaFect, Promega) as per the manufacturer's protocol at a density of 2×10^6 cells per T-25 cell-culture flask. Cells were transfected with plasmids encoding GloSensor (Promega) and either Sm.5HTR, (Smp_126730, GenBank accession number KF444051.1) or Sm.5HTRL (KX150867), both GPCRs being codon optimized for mammalian expression, or Hs.5HT7a (GenBank accession number NM_000872.4, R&D Systems) subcloned into pCS2(−). Cell culture reagents were from Invitrogen. Epitope tagged constructs were used to verify expression, and untagged constructs used for all luminescence assays.
# (§3) For assays performed on adherent cells, HEK-293 cells were transferred one day post transfection to 96 well, solid white plates (Corning, cat #3917) coated with 0.01% poly-L-lysine (Sigma Aldrich) at a density of 5×10^4 cells/well in DMEM supplemented with 1% dialyzed FBS (Gibco). After overnight culture (37° C./5% CO2), media was decanted and replaced with 100 μL/well HBSS supplemented with 0.1% BSA, 20 mM HEPES (pH 7.4) and GloSensor™ reagent. Plates were allowed to equilibrate at room temperature for two hours prior to performing luminescence assays (GloMax-Multi Detection System plate reader, Promega). Conditions for individual assays were described as per figure legends. The standard assay to detect changes in cAMP utilized the F22 sensor in media supplemented with IBMX (200 μM). Ligands were added at a concentration of 20× per well for experiments (i.e., 5 μl of drug solution added to 100 μL of cells). […] For the resazurin reduction assay for cellular viability, cells were incubated with resazurin (final concentration, 10 μM) and tested ligands with fluorescence measurements (560 nm excitation/590 nm emission) made at 1.5 hours intervals.
# (§4) The protocol for screening is shown schematically in FIG. 5A. HEK293 cells transiently transfected with either the human 5HT7 receptor (Hs.5HT7R) or the schistosome receptor (Sm.5HTR) were exposed to test ligands in a 96-well plate format. […] Luminescence was then read at a fixed time point (t=60 minutes, FIG. 5A). Hits were assigned as compounds that evoked a ≥50% decrease in luminescence output at the fixed time sampling point (FIG. 5B).
# Sm.5HTR [1] = biological target: T2, Sm.5HTR (Schistosoma mansoni, UniProt G4V5G4); type: cell-based
# T2 sequence (G4V5G4 entry or part of it): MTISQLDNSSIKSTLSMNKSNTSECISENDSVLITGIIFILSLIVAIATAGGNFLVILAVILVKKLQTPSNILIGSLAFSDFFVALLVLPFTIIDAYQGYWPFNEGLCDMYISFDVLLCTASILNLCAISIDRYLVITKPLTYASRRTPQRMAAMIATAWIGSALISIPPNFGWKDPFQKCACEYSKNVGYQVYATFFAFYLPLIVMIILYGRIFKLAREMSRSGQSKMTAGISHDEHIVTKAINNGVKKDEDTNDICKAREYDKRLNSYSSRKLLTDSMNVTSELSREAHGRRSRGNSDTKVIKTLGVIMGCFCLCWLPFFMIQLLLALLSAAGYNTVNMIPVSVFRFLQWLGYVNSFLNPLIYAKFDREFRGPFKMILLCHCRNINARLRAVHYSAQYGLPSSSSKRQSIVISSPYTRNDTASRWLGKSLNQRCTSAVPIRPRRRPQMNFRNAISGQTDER
# Description: as §2, §3, §4
# [2] = tested on: S. mansoni schistosomules; test: Schistosomule contractility assay; type: cell-based; conditions: Schistosoma mansoni, read-out: IC50, inhibition of 5-HT evoked contractions
# Description: FIGS. 14A-14F. […] Effects of selected ligands on schistosomules. […] A contractile cycle is defined when a deviation of ≥20% of the average body length (dashed lines) occurs.
# Biomphalaria glabrata (M-line) snails exposed to Schistosoma mansoni miracidia (Strain PR-1) were obtained from BEI Resources (Cat. number NR-21961) and cercaria were shed following exposure to light (1.5 hours). Cercaria were manually transformed into schistosomula by vortexing (3×45 seconds, each separated by 3 minutes on ice) and tails were removed by gradient centrifugation (24 mL Percoll, 4 mL 10×EMEM, 1.5 ml penicillin-streptomycin, 1 mL of 1M HEPES in 0.85% NaCl, 9.5 ml distilled water) at 500 g/15 minutes at 4° C. Supernatant containing tails was discarded, and schistosomules were resuspended in Basch media and incubated (37° C., 5% CO2) overnight before conducting mobility assays. For contractility experiments, somules were incubated in 5-HT free Basch media to resolve a basal contractility rate. […] Schistosomules were incubated in 24 well plates (about 200 schistosomules/0.5 mL media per well) for 30 minutes (37° C./5% CO2) prior to acquiring videos of schistosome movement (1 minute recordings/well) using a Nikon Coolpix 5700 camera affixed to a Nikon Eclipse TS100 microscope (10× objective). The WrmTrck plugin for ImageJ was used to quantify worm mobility (El-Shehabi et al., 2012). Briefly, the major axis of each schistosomule body length was extracted from the raw output of WrmTrck and an average length was determined for the duration of the recording. Contractions were quantified by determining the number of episodes during which the worm body length deviated from the average by over 20%. S. mansoni protocols were approved by the Iowa State University Institutional Biosafety Committee.
# S. mansoni = test: Hepatic shift assay in infected mice; type: in vivo, Schistosoma mansoni; conditions: intraperitoneal, ergotamine 95, praziquantel 100, methylergometrine 50, lisuride 10, dihydroergotoxine 60 mg/kg, euthanized three hours later
# Description: Female Swiss Webster mice were exposed to 200 S. mansoni cerceria (NMRI strain) at between 4-6 weeks old. For hepatic shift assays, infections were allowed to mature to 7 weeks, at which point mice were given test compounds by intraperitoneal injection and euthanized […]. Compounds were solubilized in 50 μL DMSO, and diluted in 200 μL 5% w/v trappsol (Cyclodextrin Technologies Development, THPB-p-31 g)+saline (NaCl 0.9%) solution. Immediately after being euthanized, mice were dissected to remove the liver from the portal vein, and the number of worms recovered from the portal vein, mesenteries and liver was recorded for each mouse.
# Several experiments using a murine model of schistosomiasis were carried out in order to test the anthelmintic efficacy of Sm.5HTR ligands in vivo. First, the acute effect of drugs were assessed using a “heptic-shift” assay; mature parasites normally reside within the mesenteric vasculature, and upon exposure to anthelmintics they dislodge and are swept to the liver^12,13 where they may be cleared from the host^14 (FIG. 20B-F).
# Given that the current anthelmintic therapy, praziquantel, disrupts worms and results in a rapid shift from the mesenteric vasculature to the liver (Melhorn et al., 1981) (FIG. 20B-F), it was hypothesized that Sm.5HTR ligands that disrupt parasite movement would cause a similar hepatic shift. Compounds were delivered by intraperitoneal injection and mice were euthanized three hours later in order to quantify the number of worms found in the mesentaries, portal vein or liver.
# Sm.5HTR [3] = biological target: Sm.5HTR (Schistosoma mansoni, UniProt A0A173FEI8); test: cell-based
# Sm.5HTR (Schistosoma mansoni, UniProt A0A173FEI8), sequence (A0A173FEI8 entry or part of it): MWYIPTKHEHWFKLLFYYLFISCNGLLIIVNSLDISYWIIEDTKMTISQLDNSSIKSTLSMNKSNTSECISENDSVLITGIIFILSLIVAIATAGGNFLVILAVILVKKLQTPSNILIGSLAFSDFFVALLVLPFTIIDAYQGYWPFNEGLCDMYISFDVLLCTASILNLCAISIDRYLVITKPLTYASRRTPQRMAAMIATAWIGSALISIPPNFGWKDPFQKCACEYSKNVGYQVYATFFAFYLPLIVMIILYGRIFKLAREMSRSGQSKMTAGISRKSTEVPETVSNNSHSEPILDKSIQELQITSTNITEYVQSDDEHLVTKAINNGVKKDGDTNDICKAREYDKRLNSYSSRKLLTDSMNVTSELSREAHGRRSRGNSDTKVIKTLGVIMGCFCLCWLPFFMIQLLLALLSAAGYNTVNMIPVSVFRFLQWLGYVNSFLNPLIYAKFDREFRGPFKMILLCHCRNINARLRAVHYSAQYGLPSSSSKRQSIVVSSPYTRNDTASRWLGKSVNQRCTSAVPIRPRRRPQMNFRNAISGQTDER
# Description: HEK293 cells (ATCC CRL-1573.3) were cultured in growth media consisting of DMEM supplemented with GlutaMAX (Gibco cat #10566016)+10% heat inactivated fetal bovine serum and penicillin-streptomycin (100 units/mL, ThermoFisher). Stable cell lines for the pGloSensor-22F cAMP Plasmid (Promega) and schistosome 5HTRs in pcDNA3.1(−) were selected with hygromycin (200 μg/mL) and G418 (400 μg/mL). The correct identity of each stably expressed sequence was verified by isolating total RNA from each stable line (TRIzol Reagent, Ambion) and amplifying the sequence of interest with gene specific primers flanking the 5′ and 3′ regions of the cds (SuperScript® III One-Step RT-PCR System, Invitrogen). PCR products were ligated into a TA cloning vector (pGEM-T Easy, Promega) and sequenced.
# HEK293 lines stably expressing both the 22F cAMP sensor and Sm.5HTR were cultured in growth media supplemented with 10% dialyzed FRS. For cAMP assays in 96 well format, cells cultured in T-75 flasks were trypsinized (TrypLE Express, Gibco) and plated in solid white 96 well plates (Costar cat #3917) the day prior to assay at a density of 2.5×10^4 cells/well. The following day media was removed and replaced with assay buffer consisting of HBSS buffered with HEPES (20 mM, pH 7.4)+BSA (0.1% w/v) and D-luciferin sodium salt (1 mg/mL, Gold Biotechnology). Plates were equilibrated at room temperature for 1 hour, at which point 3-Isobutyl-1-methylxanthine (IBMX 200 μM, Sigma Aldrich) was added. Plates were equilibrated a further 30 minutes prior to test compound addition. […] Readings performed in 384 well format were modified so that cells were assayed in suspension. Cells were grown to 70% confluence in T-75 flasks, trypsinized and pelleted (300 RCF×5 minutes). Media was removed and cells were resuspended in 25 mL assay buffer supplemented with IBMX (200 μM). A 96 channel semi-automated pipet (Eppendorf epMotion 96) delivered 55 μL of cell suspension per well (5000 cells/well) into solid white 384 plates (Corning 3574).
# Sm.5HTR [4] = biological target: T2, Sm.5HTR; type: cell-based; conditions: 10 μM for 30 minutes, washout, 5-HT response 1 hour later (FIGS. 11B-D)
# Description: Colors correspond to drug identity in C&D. Data represent mean±s.e.m., n=3 (C-E).
# To test putative irreversible antagonists, assays on suspension cells were performed one day post transfection. Cells in a T-75 flask were trypsinized (0.25% w/v) and transferred to a 14 mL tube, centrifuged at 300 RCF, and resuspended in HBSS supplemented with 0.1% BSA, 20 mM HEPES. Compounds were added at 10 μM, and after 30 minutes incubation at room temperature cells were centrifuged (300 RCF, 5 minutes) and resuspended in fresh media. This wash step was repeated, and cells were resuspended in HBSS supplemented with 0.1% BSA, 20 mM HEPES and GloSensor reagent. […]
# adult schistosomes = test: Egg laying assay, adult schistosome pairs in vitro; type: cell-based, Schistosoma mansoni; conditions: serotonin 100 μM, forskolin 100 μM, LSD 10 μM, nuciferine 10 μM, ergotamine 5 μM (FIG. 19F); eggs per worm pair/day over five days
# Excerpt: as §1
# For egg laying assays, adult schistosomes were transferred to 24 well plates the day after harvesting from mice (5 worm pairs in 2 mL media per well). Eggs were counted under a stereomicroscope daily, after which worms were transferred to a new well with fresh drug containing media. Egg counts were recorded for five days, and data processed as the mean number of eggs laid per worm pair/day. Measurements of egg dimensions were quantified using the “analyze>measure” function in ImageJ to record the length and width of individual eggs.
# Sm.5HTRL = Sm.5HTRL (Schistosoma mansoni, UniProt A0A173FEI8); test: GloSensor cAMP assay, HEK293 cells transiently transfected with Sm.5HTRL; type: cell-based
# Sm.5HTRL, sequence (A0A173FEI8 entry or part of it): as above
# Description: as §2, §3
smiles,measurement,setting,value
CC(C)C[C@H]1C(=O)N2CCC[C@H]2[C@]2(O)O[C@](NC(=O)[C@@H]3C=C4c5cccc6[nH]c(Br)c(c56)C[C@H]4N(C)C3)(C(C)C)C(=O)N12 [bromocriptine],IC50,adult S. mansoni,251 ± 67 nM
same,"potency (IC50) at Hs.5HT7R, lower right quadrant of FIG. 13",Hs.5HT7R,supra-μM potency
same,higher selectivity for the parasitic 5-HT receptor,Sm.5HTR [1]; Sm.5HTR over Hs.5HT7R,about 10 fold
same,"potency (IC50) at Sm.5HTR, lower right quadrant of FIG. 13",Sm.5HTR [1]; inhibition of cAMP generation,sub-μM potency
same,IC50,[2],≤ 1000 nM
CC[C@@H](CO)NC(=O)[C@@H]1C=C2c3cccc4[nH]cc(c34)C[C@H]2N(C)C1 [methylergometrine],% of worm burden found in the liver,S. mansoni,50.6±28.5%
same,Emax,"Sm.5HTR [3]; HEK293, agonist read, 45 minutes, read-out: Sm.5HTR Emax",50 ± 17%
CCN(CC)C(=O)N[C@H]1C=C2c3cccc4[nH]cc(c34)C[C@H]2N(C)C1 [lisuride],% of worm burden found in the liver,S. mansoni,no difference relative to control animals
CN1C[C@H](CNC(=O)OCc2ccccc2)C[C@@H]2c3cccc4c3c(cn4C)C[C@H]21 [metergoline],"agonist efficacy at Sm.5HTR, in words",Sm.5HTR [1]; FIG. 10A,no efficacy
same,Kb,"Sm.5HTR [1]; antagonism of 5-HT evoked cAMP accumulation, FIG. 10F, read-out: affinity constants (KB), Schild regression analysis",4530 nM
same,nature of antagonism: right-shift in the 5-HT dose-response relationship,"Sm.5HTR [1]; increasing doses of ligand, FIGS. 10B-D",competitive antagonism
same,persistence of Sm.5HTR inhibition after antagonist wash-out,Sm.5HTR [4],long-lasting inhibition
CSc1ccc2c(c1)C(N1CCN(C)CC1)Cc1ccccc1S2 (centres unmarked) [methiothepin],antagonism of 5-HT stimulated cAMP generation,"Sm.5HTR [1]; methiothepin 10 μM preincubation, 5-HT 10 μM, IBMX 200 μM (FIG. 2G)",antagonism of 5-HT stimulated cAMP generation
same,persistence of Sm.5HTR inhibition after antagonist wash-out,Sm.5HTR [4],long-lasting inhibition
"NCCc1c[nH]c2ccc(O)cc12 [5-HT, Serotonin]",EC50,"adult S. mansoni; FIG. 19B, read-out: EC50, stimulation of adult schistosome movement",52000 ± 2000 nM
same,decrease of egg laying,adult schistosomes,83%
same,EC50,"Sm.5HTRL; 5-HT dose response, FIG. 2H, read-out: EC50, activation of Sm.5HTRL",200 ± 30 nM
same,greater sensitivity of Sm.5HTRL compared with Sm.5HTR,Sm.5HTRL; ratio of 5-HT EC50,about 10 fold
Cc1nc2n(c(=O)c1CCN1CCC(c3noc4cc(F)ccc34)CC1)CCCC2 [risperidone],persistence of Sm.5HTR inhibition after antagonist wash-out,Sm.5HTR [4],long-lasting inhibition
"CCN(CC)C(=O)[C@@H]1C=C2c3cccc4[nH]c(Br)c(c34)C[C@H]2N(C)C1 [BOL-148, 2-bromo-lysergic acid diethylamide]",IC50,adult S. mansoni,29 ± 23 nM
same,decrease of egg laying,adult schistosomes,no effect
same,IC50,"Sm.5HTR [3]; 5-HT 500 nM, read-out: Sm.5HTR IC50 (antagonist)",100 ± 20 nM
same,"agonist activity at Sm.5HTR, in words",Sm.5HTR [3]; FIG. 18C,Agonist activity is eliminated
